From patent publication US8975267B2, “Tricyclic pyrrolo derivatives, process for their preparation and their use as kinase inhibitors” (Nerviano Medical Sciences S.r.l., priority 2011, dated 2015) come the findings set out here.

Structures can show the parent of a compound that is named as a salt.

Experiment [1] deals with PIM-2 (Homo sapiens (Human), UniProt Q9P1W9). The experiment in a line: PIM-2 kinase inhibition assay: Dowex technique. In kind it is biochemical. As to conditions: 4 microM ATP, 5 microM Aktide, 1.5 nM enzyme. How it is done: Method for PIM-2 Kinase Inhibition Assay: Dowex Technique
PIM-2, sequence (Q9P1W9 whole entry): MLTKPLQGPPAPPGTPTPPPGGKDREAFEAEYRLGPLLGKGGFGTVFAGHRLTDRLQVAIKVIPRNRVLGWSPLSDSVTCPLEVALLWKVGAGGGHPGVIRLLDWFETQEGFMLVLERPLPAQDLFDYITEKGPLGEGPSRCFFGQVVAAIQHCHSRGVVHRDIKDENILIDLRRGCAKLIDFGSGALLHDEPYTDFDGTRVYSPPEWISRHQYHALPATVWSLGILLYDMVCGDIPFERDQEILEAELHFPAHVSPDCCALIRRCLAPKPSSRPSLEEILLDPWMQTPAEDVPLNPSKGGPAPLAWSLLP
The buffer for PIM-2 assay was composed of HEPES 50 mM, at pH 7.5, with 1 mM MgCl2, 1 mM DTT, 3 microM Na3VO4, and 0.2 mg/mL BSA
Full-length human PIM-2 was expressed and purified as described in Fedorov O, et al., PNAS 2007 104, 51, 20523-28.
Enzyme concentration=1.5 nM
Aktide substrate (Chemical Abstract Service Registry Number 324029-01-8)=5 microM
See above: same procedure as described for PIM-1.

Experiment [2] concerns the target PIM-1 (Homo sapiens (Human), UniProt P11309). The experiment in a line: Biochemical assay for inhibitors of PIM-1 kinase activity (trans-phosphorylation, Dowex). The settings on record: 200 microM ATP, 25 microM Aktide, 1 nM enzyme. On the procedure: Biochemical Assay for Inhibitors of PIM-1 Kinase Activity
(§1) The inhibitory activity of putative kinase inhibitors and the potency of selected compounds were determined using a trans-phosphorylation assay.
(§2) Specific peptide or protein substrates are trans-phosphorylated by their specific ser-thr or tyr kinase in the presence of ATP traced with ^33P-γ-ATP, and in the presence of their own optimal buffer and cofactors.
At the end of the phosphorylation reaction, more than 98% unlabeled ATP and radioactive ATP is captured by an excess of the ion exchange dowex resin; the resin then settles down to the bottom of the reaction plate by gravity.
Supernatant is subsequently withdrawn and transferred into a counting plate, then evaluated by β-counting.
The buffer for PIM-1 assay was composed of HEPES 50 mM, at pH 7.5, with 10 mM MgCl2, 1 mM DTT, 3 microM NaVO3, and 0.2 mg/ml BSA
Full-length human PIM-1 was expressed and purified as described in Bullock A N, et al., J. Biol. Chem. 2005, 280, 41675-82.
ATP concentration: 200 microM
Enzyme concentration: 1 nM
Substrate concentration Aktide (Chemical Abstract Service Registry Number 324029-01-8): 25 microM
For IC50 determination, test compounds are received as a 1 mM solution in 100% DMSO and distributed into 96-well plates: compounds are then plated into the first column of a new 96-well plate (A1 to G1), 100 microL/well.
An automated station (Biomek FX, Beckman) is used for serial dilutions, producing 1:3 dilutions in 100% DMSO, from line A1 to A10, for all the compounds in the column. Moreover, 4-5 copies of daughter plates are prepared by reformatting 5 microL of this first set of 100% DMSO dilution plates into 384-deep well plates: one copy of these serial dilution plates with the test compounds is thawed on the day of study, reconstituted at the working concentration (3-fold the final concentration) with 162 microL/well of water and used for IC50 determination assays. In a standard experiment, the highest concentration (3×) of compounds is typically 30 microM, while the lowest one is typically 1.5 nM.
Each 384-well plate generates at least one curve of the standard inhibitor staurosporine and reference wells (total enzyme activity vs. no enzymatic activity) for evaluation of Z′ and signal to background (S/B) ratio.
384-well plates, V bottom (test plates) are prepared with 5 microL of compound diluted as previously described (3×) and then placed onto a PlateTrak 12 robotized station (Perkin Elmer; the robot has one 384-tip pipetting head for assay start, plus one 96-tip head for dispensing resin) together with one reservoir for Enzyme mix (3×) and one for ATP mix (3×).
Data are analyzed by an internally customized version of the “Assay Explorer” SW package, which provides sigmoidal fitting of the ten-dilution curves for IC50 determination in secondary assay/hit confirmation routines.

In experiment [3] the target is MPS1 (Homo sapiens (Human), UniProt P33981). The experiment in a line: Biochemical assay for inhibitors of MPS1 kinase activity (trans-phosphorylation, Dowex). As to conditions: 15 microM ATP, 200 microM P38-βtide substrate, 5 nM MPS1. On the procedure: Cloning, Expression and Purification of Recombinant MPS1 Full Length Protein.
MPS1, sequence (P33981 2-857): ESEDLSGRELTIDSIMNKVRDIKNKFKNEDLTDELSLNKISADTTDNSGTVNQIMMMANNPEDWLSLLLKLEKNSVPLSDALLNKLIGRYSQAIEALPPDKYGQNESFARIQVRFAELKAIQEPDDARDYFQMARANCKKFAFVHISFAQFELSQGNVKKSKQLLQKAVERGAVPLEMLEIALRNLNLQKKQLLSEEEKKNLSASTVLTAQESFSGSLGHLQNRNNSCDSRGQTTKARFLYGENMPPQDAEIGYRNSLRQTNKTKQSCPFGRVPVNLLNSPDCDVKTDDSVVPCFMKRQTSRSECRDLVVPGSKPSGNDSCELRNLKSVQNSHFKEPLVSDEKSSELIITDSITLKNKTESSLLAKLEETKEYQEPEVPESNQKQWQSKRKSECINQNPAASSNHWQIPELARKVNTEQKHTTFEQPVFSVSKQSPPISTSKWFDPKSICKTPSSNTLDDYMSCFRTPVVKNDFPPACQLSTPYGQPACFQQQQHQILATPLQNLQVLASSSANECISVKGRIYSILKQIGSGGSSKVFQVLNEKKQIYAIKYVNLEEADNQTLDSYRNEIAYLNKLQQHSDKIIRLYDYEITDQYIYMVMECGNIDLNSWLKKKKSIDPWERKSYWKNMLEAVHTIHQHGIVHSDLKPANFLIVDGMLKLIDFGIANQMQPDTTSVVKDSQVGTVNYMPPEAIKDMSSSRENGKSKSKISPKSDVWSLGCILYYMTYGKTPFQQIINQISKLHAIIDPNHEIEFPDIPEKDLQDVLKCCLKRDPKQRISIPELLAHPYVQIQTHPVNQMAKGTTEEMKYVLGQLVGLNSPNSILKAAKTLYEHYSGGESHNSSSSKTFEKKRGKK
MPS1 full length (corresponding to residues 2-857 of the full length sequence, see Swiss-Prot accession number P33981) was PCR amplified from the full-length human MPS1 gene present in house as clone pGEX4t_MPS1.
To get a fully activated enzyme, the protein was then subjected to auto-phosphorylation in presence of ATP 1 mM at 25° C. for 2 hours in kinase buffer (Hepes pH7.5 50 mM, MgCl2 2.5 mM, MnCl2 1 mM, DTT 1 mM, phosphatase inhibitors); ATP was then removed whit a desalting column.
Biochemical Assay for Inhibitors of MPS1 Kinase Activity
as §1, §2
At the end of the phosphorylation reaction, more than 98% unlabeled ATP and radioactive ATP is captured by an excess of the ion exchange dowex resin; the resin then settles down to the bottom of the reaction plate by gravity. Supernatant is subsequently withdrawn and transferred into a counting plate, then evaluated by β-counting.
The buffer for MPS1 assay was composed of HEPES 50 mM, at pH 7.5, with 2.5 mM MgCl2, 1 mM MnCl2, 1 mM DTT, 3 microM Na3VO4, 2 mM β-glycerophosphate and 0.2 mg/mL BSA.
The assay was run with a final concentration MPS1 of 5 nM, in the presence of 15 microM ATP and 1.5 nM ^33P-γ-ATP; the substrate was P38-βtide, used at 200 microM.
a) for percent inhibition studies (HTS), individual dilution plates at 1 mM are diluted at a 3× concentration (30 microM) in ddH2O (3% DMSO=final concentration) using a Beckman NX automated pipetting platform. The same instrument is used for distributing the diluted mother plates into the test plates. b) for IC50 determination (KSS platform), 100 microL of each compound at 1 mM in 100% DMSO are transferred from the original plate into the first column of another 96 well plate (A1 to G1); well H1 is left empty for the internal standard inhibitor, usually staurosporine.
An automated station for serial dilutions (Biomek FX, Beckman) is used for producing 1:3 dilutions in 100% DMSO, from line A1 to A10, and for all the seven compounds in the column. Moreover, 4-5 copies of daughter plates are prepared by reformatting 5 microL of this first set of 100% DMSO dilution plates into 384 deep well-plates: one copy of the daughter plates with the serial dilutions of test compounds will be thaw the day of the experiments, reconstituted at a 3× concentration with water and used in the IC50 determination assays. In a standard experiment, the highest concentration (3×) of all compounds is 30 microM, while the lowest one is 1.5 nM.
384-well plates, V bottom (test plates) are prepared with 5 microL of the compound dilution (3×) and then placed onto a PlateTrak 12 robotized station (Perkin Elmer; the robot has one 384-tips pipetting head for starting the assay plus one 96-tips head for dispensing the resin) together with one reservoir for the Enzyme mix (3×) and one for the ATP mix (3×).
At the start of the run, the robot aspirates 5 microL of ATP mix, makes an air gap inside the tips (2 microL) and aspirates 5 microL of MPS1 mix. The following dispensation into the plates allows the kinase reaction to start upon 3 cycles of mixing, done by the robot itself.
The robot incubates the plates for 60 minutes at room temperature, and then stops the reaction by pipetting 70 microL of dowex resin suspension into the reaction mix. Three cycles of mixing are done immediately after the addition of the resin.
Another mixing cycle is performed after all the plates are stopped, this time using normal tips: the plates are then allowed to rest for about one hour in order to maximize ATP capture. […]

As usually defined, the IC50 is the concentration needed to halve the response being measured. Read a high IC50 as a need for much substance.

PIM-1, sequence (P11309 whole entry): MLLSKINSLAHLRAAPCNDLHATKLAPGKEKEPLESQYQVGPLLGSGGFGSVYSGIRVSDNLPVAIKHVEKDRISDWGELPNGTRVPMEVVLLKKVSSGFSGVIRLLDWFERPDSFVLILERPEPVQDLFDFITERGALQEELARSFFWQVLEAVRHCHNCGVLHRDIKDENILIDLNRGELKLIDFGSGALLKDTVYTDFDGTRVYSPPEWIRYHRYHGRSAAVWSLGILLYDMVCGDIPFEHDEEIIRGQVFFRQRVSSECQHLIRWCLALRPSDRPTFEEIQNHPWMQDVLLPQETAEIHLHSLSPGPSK

With `CCc1cccc(CC)c1NC(=O)c1c2c(n(C)c1C)-c1nc(Nc3ccc(N4CCC(N5CCCC5)CC4)cc3OC)ncc1CC2` [Compound 3, N-(2,6-diethylphenyl)-2-({2-methoxy-4-[4-(pyrrolidin-1-yl)piperidin-1-yl]phenyl}amino)-8,9-dimethyl-6,9-dihydro-5H-pyrrolo[3,2-h]quinazoline-7-carboxamide], the IC50 in experiment [1] is greater than 10000 nM; in experiment [2], greater than 10000 nM; in experiment [3], 99 nM.

Regarding `COc1cc(N2CCN(C)CC2)ccc1Nc1ncc2c(n1)-c1c(c(C(N)=O)c(C)n1C)CC2` [Compound 7, 2-{[2-methoxy-4-(4-methylpiperazin-1-yl)phenyl]amino}-8,9-dimethyl-6,9-dihydro-5H-pyrrolo[3,2-h]quinazoline-7-carboxamide], the IC50 in experiment [1] is greater than 5000 nM; in experiment [2], 748 nM; in experiment [3] it was 23 nM.

Take `CCc1cccc(CC)c1NC(=O)c1cn(C)c2c1CCCc1cnc(Nc3ccc(N4CCN(C)CC4)cc3OC)nc1-2` [Compound 16, N-(2,6-diethylphenyl)-2-{[2-methoxy-4-(4-methylpiperazin-1-yl)phenyl]amino}-10-methyl-5,6,7,10-tetrahydropyrrolo[3′,2′:6,7]cyclohepta[1,2-d]pyrimidine-8-carboxamide]: the IC50 in experiment [1] was greater than 10000 nM; in experiment [2], greater than 10000 nM; in experiment [3], 132 nM.

Consider `CSc1ncc2c(n1)-c1c(c(C(N)=O)cn1C(C)C)CC2` [Compound 22, 2-(methylsulfanyl)-9-(propan-2-yl)-6,9-dihydro-5H-pyrrolo[3,2-h]quinazoline-7-carboxamide], for which the figures for the IC50 in experiment [1], in experiment [2] and in experiment [3] were 24 nM, 16 nM and 382 nM, respectively.

Regarding `CSc1ncc2c(n1)-c1c(c(C(N)=O)cn1CCO)CC2` [Compound 25, 9-(2-hydroxyethyl)-2-(methylsulfanyl)-6,9-dihydro-5H-pyrrolo[3,2-h]quinazoline-7-carboxamide], the figures for the IC50 in experiment [1], in experiment [2] and in experiment [3] were 540 nM, 133 nM and 2440 nM, respectively.

Take `CSc1ncc2ccc3c(C(N)=O)c(C)n(CCO)c3c2n1` [Compound 29, 9-(2-hydroxyethyl)-8-methyl-2-(methylsulfanyl)-9H-pyrrolo[3,2-h]quinazoline-7-carboxamide]: the IC50 in experiment [1] was determined as 408 nM; in experiment [2], 87 nM; in experiment [3], 2940 nM.

Consider `CSc1ncc2ccc3c(C(N)=O)c(C)n(C(C)C)c3c2n1` [Compound 30, 8-methyl-2-(methylsulfanyl)-9-(propan-2-yl)-9H-pyrrolo[3,2-h]quinazoline-7-carboxamide], for which the IC50 in experiment [1] is 12 nM; in experiment [2], 4 nM; in experiment [3], 622 nM.

Consider `CSc1ncc2c(n1)-c1c(c(C(N)=O)cn1C1CCNCC1)CC2` [Compound 32, 2-(methylsulfanyl)-9-(piperidin-4-yl)-6,9-dihydro-5H-pyrrolo[3,2-h]quinazoline-7-carboxamide hydrochloride], for which the half-maximal inhibitory concentration (IC50) is 159 nM in experiment [1], 74 nM in experiment [2] and greater than 10000 nM in experiment [3].

Take `CSc1ncc2c(n1)-c1c(c(C(N)=O)cn1[C@H]1CC[C@@H](N)CC1)CC2` [Compound 33, 9-(cis 4-aminocyclohexyl)-2-(methylsulfanyl)-6,9-dihydro-5H-pyrrolo[3,2-h]quinazoline-7-carboxamide hydrochloride]: the half-inhibitory concentration (IC50) in experiment [1] was 7 nM; in experiment [2], 5 nM; in experiment [3], 1550 nM.

In the case of `CSc1ncc2ccc3c(C(N)=O)cn([C@H]4CC[C@@H](N)CC4)c3c2n1` [Compound 34, 9-(cis-4-aminocyclohexyl)-2-(methylsulfanyl)-9H-pyrrolo[3,2-h]quinazoline-7-carboxamide], the IC50 in experiment [1] worked out at 1 nM; in experiment [2], 0.8 nM; in experiment [3], 855 nM.

Turning to `CSc1ncc2ccc3c(C(N)=O)cn(C4CCNCC4)c3c2n1` [Compound 35, 2-(methylsulfanyl)-9-(piperidin-4-yl)-9H-pyrrolo[3,2-h]quinazoline-7-carboxamide], the IC50 amounted to 23 nM in experiment [1], 7 nM in experiment [2] and 4550 nM in experiment [3].

`CSc1ncc2ccc3c(C(N)=O)c[nH]c3c2n1` [Compound 36, 2-(methylsulfanyl)-9H-pyrrolo[3,2-h]quinazoline-7-carboxamide]: the values for the IC50 in experiment [1], in experiment [2] and in experiment [3] were 46 nM, 13 nM and 814 nM, respectively.

For the molecule `CSc1ncc2ccc3c(C(N)=O)cn(CC(C)(C)CN)c3c2n1` [Compound 38, 9-(3-amino-2,2-dimethylpropyl)-2-(methylsulfanyl)-9H-pyrrolo[3,2-h]quinazoline-7-carboxamide hydrochloride], the IC50 in experiment [1] worked out at 34 nM; in experiment [2], 24 nM; in experiment [3] it was 2940 nM.

In the case of `Cn1cc(C(N)=O)c2c1-c1nc(N)ncc1CC2` [Ref. cmpound 1, 2-amino-9-methyl-6,9-dihydro-5H-pyrrolo[3,2-h]quinazoline-7-carboxamide, reference compound], the IC50 in experiment [1], in experiment [2] and in experiment [3] was greater than 10000 nM throughout.

Take `NC(=O)c1c(-c2ccccc2)[nH]c2c1ccc1cnc(N)nc12` [compound 2, 2-amino-8-phenyl-9H-pyrrolo[3,2-h]quinazoline-7-carboxamide, reference compound]: the IC50 in experiment [1] was greater than 10000 nM; in experiment [2], greater than 5000 nM; in experiment [3] it was greater than 5000 nM.
